From the supplement of paper PMC8671470

Assays:
Experiment in all cases: cell viability (% survival relative to DMSO control); higher = less cytotoxic
Conditions in all cases: 72 h
[1] = system: BV-173
Experimental: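 8x8 drug-combination matrices (0–5000 nM; rosiglitazone and lestaurtinib 0–1000 nM) were run in BV-173 cells for 72 h with CellTiter-Glo read-out. Survival is normalised to DMSO and 10 µM bortezomib and clipped at 100%.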

[2] = system: Mono-Mac-6
Experimental: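 8x8 drug-combination matrices (0–5000 nM; rosiglitazone and lestaurtinib 0–1000 nM) were run in Mono-Mac-6 cells for 72 h with CellTiter-Glo read-out. Survival is normalised to DMSO and 10 µM bortezomib and clipped at 100%.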

[3] = system: HL-60
Experimental: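 8x8 drug-combination matrices (0-5000 nM; rosiglitazone and lestaurtinib 0-1000 nM) were run in HL-60 cells for 72 h with a CellTiter-Glo read-out. Survival is normalised to DMSO and 10 µM bortezomib and clipped at 100%. Bliss synergy was analysed in SynergyFinder.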

CN(C)C(=O)n1nnnc1Cc1ccc(-c2ccccc2)cc1 + CCOC(=O)N1c2ccc(C(F)(F)F)cc2[C@@H](N(Cc2cc(C(F)(F)F)cc(C(F)(F)F)c2)C(=O)OC)C[C@H]1CC [Torcetrapib]
cell viability [%]
Conditions | drug1 concentration 5 nM | drug1 concentration 10 nM | drug1 concentration 50 nM | drug1 concentration 100 nM | drug1 concentration 500 nM | drug1 concentration 1000 nM | drug1 concentration 5000 nM
[1], drug2 concentration 5 nM | > 100 | > 100 | > 100 | 83.6 | 86.7 | 61 | -1.29
[1], drug2 concentration 10 nM | 79.6 | 99.9 | 97.9 | 77.9 | 64.3 | 67 | -0.12
[1], drug2 concentration 50 nM | 70.5 | 94.4 | 69.5 | 70.6 | 61 | 53.7 | 1.13
[1], drug2 concentration 100 nM | 62.8 | 69 | 80.1 | 87.3 | > 100 | 45.6 | -0.25
[1], drug2 concentration 500 nM | 73.5 | > 100 | > 100 | 83.8 | 95.5 | 86 | 0.45
[1], drug2 concentration 1000 nM | 80.8 | 68.8 | 94.8 | 94.5 | > 100 | 71.3 | 1.28
[1], drug2 concentration 5000 nM | 61.4 | 64.7 | 62 | 69.6 | 77.6 | 24.2 | 0
[2], drug2 concentration 5 nM | > 100 | > 100 | > 100 | > 100 | 82.7 | 86.1 | -0.88
[2], drug2 concentration 10 nM | 93 | 86.3 | > 100 | 92 | 69 | 90.7 | 0.43
[2], drug2 concentration 50 nM | > 100 | 89.7 | 93.7 | 95.9 | > 100 | 58.1 | 1.57
[2], drug2 concentration 100 nM | 89 | > 100 | > 100 | > 100 | > 100 | 96.6 | 0.14
[2], drug2 concentration 500 nM | 91.9 | > 100 | > 100 | 97 | > 100 | > 100 | 0.52
[2], drug2 concentration 1000 nM | 99.7 | 86.5 | 98.8 | > 100 | > 100 | > 100 | 2.08
[2], drug2 concentration 5000 nM | 90.6 | 88.3 | > 100 | 93.4 | > 100 | 74.2 | 0
[3], drug2 concentration 5 nM | 89.2 | > 100 | 64.3 | > 100 | 94.3 | > 100 | 8.91
[3], drug2 concentration 10 nM | > 100 | > 100 | > 100 | > 100 | > 100 | 90 | 15.4
[3], drug2 concentration 50 nM | 81.6 | > 100 | 86.8 | 80.8 | 79.3 | 87.4 | 6.94
[3], drug2 concentration 100 nM | 91.3 | > 100 | > 100 | 82.7 | > 100 | 80 | 14.4
[3], drug2 concentration 500 nM | > 100 | > 100 | > 100 | > 100 | > 100 | 85 | 6.21
[3], drug2 concentration 1000 nM | > 100 | > 100 | > 100 | > 100 | 98.3 | > 100 | 13
[3], drug2 concentration 5000 nM | > 100 | > 100 | > 100 | > 100 | > 100 | 78.8 | 0

Oc1ncc(F)c(O)n1 [5-fluorouracil] + C[C@]12O[C@H](C[C@]1(O)CO)n1c3ccccc3c3c4c(c5c6ccccc6n2c5c31)CNC4=O [Lestaurtinib]
cell viability [%]
Conditions | drug1 concentration 5 nM | drug1 concentration 10 nM | drug1 concentration 50 nM | drug1 concentration 100 nM | drug1 concentration 500 nM | drug1 concentration 1000 nM | drug1 concentration 5000 nM
[1], drug2 concentration 1 nM | > 100 | > 100 | > 100 | > 100 | 86.1 | 79.2 | 47.6
[1], drug2 concentration 5 nM | > 100 | 81.2 | 85.7 | 86.6 | > 100 | 82.8 | 69.9
[1], drug2 concentration 10 nM | 93 | 95.9 | 87.7 | > 100 | 72.4 | 74.2 | 71.8
[1], drug2 concentration 50 nM | 60.2 | 59.9 | 50 | 68.2 | 58.5 | 59.2 | 35
[1], drug2 concentration 100 nM | 68 | 43.6 | 46.5 | 47.5 | 40.6 | 44.3 | 20.2
[1], drug2 concentration 500 nM | 18.1 | 36.8 | 20.9 | 25.8 | 20.4 | 20.7 | 9.65
[1], drug2 concentration 1000 nM | 19.6 | 37.9 | 24.6 | 30.9 | 42.5 | 27.9 | 8.5
[2], drug2 concentration 1 nM | > 100 | > 100 | > 100 | 98 | 81.7 | 66.8 | 43.8
[2], drug2 concentration 5 nM | > 100 | 62.4 | 76.5 | 65.3 | 69.7 | 54.7 | 48
[2], drug2 concentration 10 nM | 58.5 | 59.6 | 61.9 | 68 | 42.9 | 54.4 | 50.9
[2], drug2 concentration 50 nM | 20.5 | 20.9 | 19 | 21.8 | 19.7 | 19.4 | 21.1
[2], drug2 concentration 100 nM | 15.4 | 11.6 | 14.2 | 12.9 | 8.95 | 10.9 | 7.36
[2], drug2 concentration 500 nM | 1.8 | 1.6 | 3.44 | 3.7 | 1.89 | 2.85 | 1.13
[2], drug2 concentration 1000 nM | -0.9 | 1.2 | 0.62 | 2.92 | 5.56 | 0.83 | 0
[3], drug2 concentration 1 nM | > 100 | > 100 | 53 | > 100 | 89.7 | 66.2 | 62.9
[3], drug2 concentration 5 nM | > 100 | 79.6 | > 100 | 71.6 | 91.6 | 64.7 | 80.9
[3], drug2 concentration 10 nM | 73.2 | 98.7 | > 100 | > 100 | 84.2 | 50.3 | 66.5
[3], drug2 concentration 50 nM | 72 | 85.6 | 56.1 | 67.8 | 53.5 | 77.1 | 43
[3], drug2 concentration 100 nM | 60.5 | 67.5 | 68.8 | 63.6 | 74.3 | 51.8 | 32.6
[3], drug2 concentration 500 nM | 32.8 | 32.6 | 48.9 | 41.5 | 35.7 | 33.5 | 26.1
[3], drug2 concentration 1000 nM | 8.89 | 19.8 | 19.4 | 20.8 | 52.9 | 25.7 | 0

CN(C)CCNC(=O)c1cccn2c(=O)c3cc4ccccc4cc3nc12 [Bmh-21] + O=C(O)CC[N+](=O)[O-] [3-nitropropionic acid]
cell viability [%]
Conditions | drug1 concentration 5 nM | drug1 concentration 10 nM | drug1 concentration 50 nM | drug1 concentration 100 nM | drug1 concentration 500 nM | drug1 concentration 1000 nM | drug1 concentration 5000 nM
[1], drug2 concentration 5 nM | > 100 | > 100 | > 100 | 95.6 | 6.08 | 1.91 | 0.1
[1], drug2 concentration 10 nM | 94.1 | > 100 | > 100 | > 100 | 19.6 | 3.29 | -1.01
[1], drug2 concentration 50 nM | > 100 | 79.4 | 83.4 | > 100 | 0.68 | 35.3 | -0.78
[1], drug2 concentration 100 nM | 82.9 | > 100 | > 100 | 94.8 | 2.69 | -0.53 | 0.59
[1], drug2 concentration 500 nM | > 100 | 86.6 | 88.3 | > 100 | 38.2 | 68 | -0.99
[1], drug2 concentration 1000 nM | 92 | > 100 | > 100 | 66.9 | 10.4 | -1.13 | 0.46
[1], drug2 concentration 5000 nM | > 100 | > 100 | > 100 | 99.5 | 0.21 | -1.32 | 0
[2], drug2 concentration 5 nM | 76.5 | > 100 | > 100 | 83.1 | 56.5 | 60.2 | 63.5
[2], drug2 concentration 10 nM | > 100 | > 100 | > 100 | > 100 | 70.1 | 83.3 | 45.7
[2], drug2 concentration 50 nM | > 100 | 91.1 | 87 | > 100 | 63.6 | 67.4 | 49.9
[2], drug2 concentration 100 nM | 98.2 | > 100 | > 100 | 79.8 | 73.9 | 74.2 | > 100
[2], drug2 concentration 500 nM | 90.6 | > 100 | 91.9 | > 100 | > 100 | 72.2 | 44.8
[2], drug2 concentration 1000 nM | 96.3 | 97 | 88.2 | 90.7 | > 100 | 83.4 | 83.5
[2], drug2 concentration 5000 nM | > 100 | 76.8 | > 100 | > 100 | 67.5 | 61 | 69.3
[3], drug2 concentration 5 nM | 76.1 | > 100 | > 100 | > 100 | 34.7 | 29.4 | 11.4
[3], drug2 concentration 10 nM | 85.5 | > 100 | > 100 | 89.3 | 54.7 | 48.5 | 34
[3], drug2 concentration 50 nM | 90.2 | 83.1 | > 100 | > 100 | 57 | 52.6 | 7.17
[3], drug2 concentration 100 nM | > 100 | > 100 | > 100 | > 100 | 45.9 | 28.8 | 4.7
[3], drug2 concentration 500 nM | > 100 | > 100 | 81.7 | > 100 | 53.9 | 70 | 13.8
[3], drug2 concentration 1000 nM | > 100 | 62.9 | > 100 | > 100 | 77.4 | 1.67 | 50.4
[3], drug2 concentration 5000 nM | > 100 | > 100 | 68.7 | > 100 | 22 | 24.2 | 0
